Tests used:
[1] = tested on: Basophils (CD63+/CD203c+); experiment: Basophil activation by COVID-19 vaccines and vaccine components, blood of a hypersensitive subject; assay type: cell-based, human; settings: subject with known allergic reaction to mRNA-1273 booster
Neutrophils (CD11b+) = assay type: cell-based, human

Row | Molecule | basophil activation and gross granulocyte activation in response to vaccine components [1] | percent neutrophil activation versus control, vaccine components (Neutrophils (CD11b+))
1 | polysorbate-80 [PS80] | marked increase | higher percent neutrophil activation versus control
2 | 2-hydroxypropyl-β-cyclodextrin [HBCD] |  | higher percent neutrophil activation versus control
3 | CCCCCCCCC(CCCCCC)C(=O)OCCCCCCN(CCCCO)CCCCCCOC(=O)C(CCCCCC)CCCCCCCC (stereo not shown) [ALC0315] | marked increase | higher percent neutrophil activation versus control
4 | 2-[(polyethylene glycol)-2000]-N,N-ditetradecylacetamide [ALC0159] | marked increase | higher percent neutrophil activation versus control
5 | CCCCCCCCCCCOC(=O)CCCCCN(CCO)CCCCCCCC(=O)OC(CCCCCCCC)CCCCCCCC [SM102] | marked increase | higher percent neutrophil activation versus control
6 | CCO [ethanol] |  | did not
7 | 2,2-dimyristoyl-rac-glycero3-methoxypolyethylene glycol-2000 [PEG2000-DMG] | marked increase | higher percent neutrophil activation versus control
8 | CCCCCCCCCCCCCCCCCC(=O)OC[C@H](COP(=O)([O-])OCC[N+](C)(C)C)OC(=O)CCCCCCCCCCCCCCCCC [DSPC, 1,2-diastearoyl-sn-glycero-3-phosphocholine] |  | did not
